Measured values taken from patent US6713474B2, “Pyrrolopyrimidines as therapeutic agents” (Abbott GmbH & Co. KG, priority 1998, dated 2004).

melting point	Structure (SMILES)
207.5 to 210 °C	CN(C)[C@H]1CC[C@H](n2cc(-c3ccc(Oc4ccccc4)cc3)c3c(N)ncnc32)CC1 [Example 196, Trans-7-(4-Dimethylaminocyclohexyl)-5-(4-phenoxyphenyl)-7H-pyrrolo[2,3-d]pyrimidin-4-ylamine]
180 to 182 °C	CN(C)[C@H]1CC[C@@H](n2cc(-c3ccc(Oc4ccccc4)cc3)c3c(N)ncnc32)CC1 [Example 196, cis-7-(4-Dimethylaminocyclohexyl)-5-(4-phenoxyphenyl)-7H-pyrrolo[2,3-d]pyrimidin-4-ylamine]
182 to 184 °C	Nc1ncnc2c1c(-c1ccc(Oc3ccccc3)cc1)cn2C1CCNC1 (stereo not drawn) [Example 205, 5-(4-Phenoxyphenyl)-7-(3-pyrrolidinyl) -7H-pyrrolo[2,3-d]pyrimidin-4-ylamine]
168.5 to 169.5 °C	CC(C)(C)OC(=O)N1CCC(n2cc(-c3ccc(Oc4ccccc4)cc3)c3c(N)ncnc32)CC1 [Example 200, tert-Butyl 4-[4-Amino-5-(4-phenoxyphenyl)-7H-pyrrolo[2,3-d]pyrimidin-7-yl]-1-piperidinecarboxylate]
239.5 to 241 °C	CC(C(=O)O)n1cc(-c2ccc(Oc3ccccc3)cc2)c2c(N)ncnc21 (stereo not drawn) [Example 157, 2-[4-Amino-5-(4-phenoxyphenyl)-7H-pyrrolo[2,3-d]pyrimidin-7-yl]propionic Acid]
227 to 228 °C	CC(C)(C(N)=O)n1cc(-c2ccc(Oc3ccccc3)cc2)c2c(N)ncnc21 [Example 160, 2-[4-Amino-5-(4-phenoxyphenyl)pyrrolo[2,3-d]pyrimidin-7-yl]-2-methylpropionamide]
193 to 194 °C	Nc1ncnc2c1c(-c1ccc(Oc3ccccc3)cc1)cn2C1CCC2(CC1)OCCO2 [Example 174, 5-(4-Phenoxyphenyl)-7-(1,4-dioxaspiro[4,5]decan-8-yl)-7H-pyrrolo[2,3-d]pyrimidin-4-ylamine]
199 to 200 °C	Nc1ncnc2c1c(-c1ccc(Oc3ccccc3)cc1)cn2C1CCC(O)CC1 (stereo not drawn) [Example 243, 4-[4-Amino-5-(4-phenoxyphenyl)-7H-pyrrolo[2,3-d]pyrimidin-7-yl]cyclohexanol]
85 to 86 °C	Nc1ncnc2c1c(-c1ccc(Oc3ccccc3)cc1)cn2CCCCCCCCN1C(=O)c2ccccc2C1=O [Example 169, 5-(4-Phenoxyphenyl)-7-(8-phthalimidooctyl)-7H-pyrrolo[2,3-d]pyrimidin-4-ylamine]
242 to 242.5 °C	N#Cc1cccnc1-n1cc(-c2ccc(Oc3ccccc3)cc2)c2c(N)ncnc21 [Example 180, 2-[4-Amino-5-(4-phenoxyphenyl)-7H-pyrrolo[2,3-d]pyrimidin-7-yl]pyridine-3-carbonitrile]
168 to 170 °C	CC(C)(C)OC(=O)N1CCC(n2cc(-c3ccc(Oc4ccccc4)cc3)c3c(N)ncnc32)C1 (stereo not drawn) [Example 203, tert-Butyl 3-[4-Amino-5-(4-phenoxyphenyl)-7H-pyrrolo[2,3-d]pyrimidin-7-yl]-1-pyrrolidinecarboxylate]
145 to 147 °C	Nc1ncnc2c1c(-c1ccc(Oc3ccccc3)cc1)cn2CC(=O)NCCOCCO [Example 156, N-[-2(2-hydroxyethoxy)ethyl]-2-[4-amino-5-(4-phenoxyphenyl)-7H-pyrrolo[2,3-d]-pyrimidin-7-yl]acetamide]
111 to 112 °C	Nc1ncnc2c1c(-c1ccc(Oc3ccccc3)cc1)cn2CCN1C(=O)c2ccccc2C1=O [Example 171, N-{2-[4-Amino-5-(4-phenoxyphenyl)-7H-pyrrolo[2,3-d]pyrimidin-7-yl]ethyl}phthalimide]
252 to 254 °C	Nc1ncnc2c1c(-c1ccc(Oc3ccccc3)cc1)cn2C1CCC(=O)CC1 [Example 175, 4-[4-Amino-5-(4-phenoxyphenyl)-7H-pyrrolo[2,3-d]pyrimidin-7-yl]cyclohexanone]

Continued, compound first:

Structure (SMILES)	melting point
Nc1ncnc2c1c(-c1ccc(Oc3ccccc3CN3CCOCC3)cc1)cn2C1CCOC1 (stereo not drawn) [Example 31, 5-[4-(2-Morpholinomethylphenoxy)phenyl]-7-(3-tetrahydrofuryl)-7H-pyrrolo[2,3-d]pyrimidin-4-ylamine]	169 to 171 °C
Cl.Cl.Nc1ncnc2c1c(-c1ccc(Oc3ccccc3)cc1)cn2C1CCNC1 (stereo not drawn) (hydrate or solvate)	298 °C (dec.)
Nc1ncnc2c1c(-c1ccc(Oc3ccc(CN4CCOCC4)cc3)cc1)cn2C1CCOC1 (stereo not drawn) [Example 36, 5-[4-(4-Morpholinomethylphenoxy)-phenyl]-7-(3-tetrahydrofuryl)-7H-pyrrolo[2,3-d]pyrimidin-4-ylamine]	142 to 144 °C
Nc1ncnc2c1c(-c1ccc(Oc3ccccc3C=O)cc1)cn2C1CCOC1 (stereo not drawn) [Example 29, 2-[4-(4-Amino-7-(3-tetrahydrofuryl)-7H-pyrrolo[2,3-d)pyrimidin-5-yl)phenoxy]benzaldehyde]	185 to 187 °C
COCCCNc1cccc(Oc2ccc(-c3cn(C4CCOCC4)c4ncnc(N)c34)cc2)c1C#N [Example 52, 2-[4-(4-Amino-7-(4-tetrahydropyranyl)-7H-pyrrolo[2,3-d]pyrimidin-5-yl)phenoxy)-6-(3-methoxypropylamino)benzonitrile]	205 to 207 °C
Cl.Cl.NCCCCCCCCn1cc(-c2ccc(Oc3ccccc3)cc2)c2c(N)ncnc21.O.O (hydrate or solvate)	120 °C
CN1CCN([C@@H]2CCC[C@H](n3cc(-c4ccc(Oc5ccccc5)cc4)c4c(N)ncnc43)C2)CC1.Cl.Cl.Cl (relative stereo)	224.5 to 226.5 °C (dec.)
NCc1cccnc1-n1cc(-c2ccc(Oc3ccccc3)cc2)c2c(N)ncnc21.O=C(O)/C=C\C(=O)O.O=C(O)/C=C\C(=O)O	131 to 134 °C
COc1cc(-c2cn([C@H]3CC[C@H](N4CCN(C)CC4)CC3)c3ncnc(N)c23)ccc1NC(=O)OCc1ccccc1.O=C(O)/C=C\C(=O)O.O=C(O)/C=C\C(=O)O.O=C(O)/C=C\C(=O)O	146 to 148 °C
N#Cc1ccccc1Oc1ccc(-c2cn(C3CCOC3)c3ncnc(N)c23)cc1 (stereo not drawn) [Example 28, 2-[4-(4-Amino-7-(3-tetrahydrofuryl)-7H-pyrrolo[2,3-d]pyrimidin-5-yl)phenoxy]-benzonitrile]	201 to 203 °C
Nc1ncnc2c1c(-c1ccc(Oc3ccccc3)cc1)cn2C1CCOC1 (stereo not drawn) [Example 22, 5-(4-Phenoxyphenyl)-7-(3-tetrahydrofuryl)-7H-pyrrolo[2,3-d]pyrimidin-4-ylamine]	196 to 196.5 °C
Nc1ncnc2c1c(-c1ccc(Oc3ccccc3CN3CCCCC3)cc1)cn2C1CCOC1 (stereo not drawn) [Example 32, 5-[4-(2-Piperidinomethylphenoxy)phenyl]-7-(3-tetrahydrofuryl)-7H-pyrrolo[2,3-d]pyrimidin-4-ylamine]	76 to 78 °C
CCOC(=O)Cn1cc(-c2ccc(Oc3ccccc3)cc2)c2c(N)ncnc21 [Example 150, Ethyl 2-[4-Amino-5-(4-phenoxyphenyl)-7H-pyrrolo[2,3-d]pyrimidin-7-yl]acetate]	161 to 161.3 °C
Nc1ncnc2c1c(-c1ccc(Oc3cccc(CN4CCOCC4)c3)cc1)cn2C1CCOC1 (stereo not drawn) [Example 37, 5-[4-(3-Morpholinomethylphenoxy)phenyl]-7-(3-tetrahydrofuryl)-7H-pyrrolo[2,3-d]pyrimidin-4-ylamine]	83 to 85 °C
Cl.Cl.Nc1ncnc2c1c(-c1ccc(Oc3ccccc3)cc1)cn2C1CNOC1 (stereo not drawn)	208 °C (dec.)
CCN(CC)Cc1ccccc1Oc1ccc(-c2cn(C3CCOC3)c3ncnc(N)c23)cc1 (stereo not drawn) [Example 27, 2-[4-(4-Amino-7-(3-tetrahydrofuryl)-7H-pyrrolo[2,3-d]pyrimidin-5-yl)phenoxy]-N,N-diethylbenzylamine]	107 to 110 °C
Nc1ncnc2c1c(-c1ccc(Oc3ccccc3)cc1)cn2C1COCC1O (stereo not drawn) [Example 30, 4-[4-Amino-5-(4-phenoxyphenyl)-7H-pyrrolo-[2,3-d]pyrimidin-7-yl]tetrahydrofuran-3-ol]	234.5 to 235.5 °C
COCCCNc1cccc(Oc2ccc(-c3cn(C4CCOC4)c4ncnc(N)c34)cc2)c1C#N (stereo not drawn) [Example 41, 2-[4-(4-Amino-7-(3-tetrahydrofuryl)-7H-pyrrolo[2,3-d]pyrimidin-5-yl)phenoxy]-6-(3-methoxypropylamino)benzonitrile]	183 to 184 °C
Nc1ncnc2c1c(-c1ccc(Oc3ccc(F)cc3)cc1)cn2C1CCOC1 (stereo not drawn) [Example 35, 5-[4-(4-Fluorophenoxy)phenyl]-7-(3-tetrahydrofuryl)-7H-pyrrolo[2,3-d]pyrimidin-4-ylamine]	198 to 199 °C
N#Cc1c(NCCCn2ccnc2)cccc1Oc1ccc(-c2cn(C3CCOC3)c3ncnc(N)c23)cc1 (stereo not drawn) [Example 39, 2-[4-(4-Amino-7-(3-tetrahydrofuryl)-7H-pyrrolo[2,3-d]pyrimidin-5-yl)phenoxy]-6-(3-imidazol-1-yl)propylaminobenzonitrile]	110 °C
CN1CCN(C2CCC(n3cc(-c4ccc(Oc5ccccc5)cc4)c4c(N)ncnc43)C2)CC1.O=C(O)/C=C\C(=O)O.O=C(O)/C=C\C(=O)O.O=C(O)/C=C\C(=O)O (stereo not drawn) (hydrate or solvate)	168 to 170 °C (dec.)
COCCNCc1ccccc1Oc1ccc(-c2cn(C3CCOC3)c3ncnc(N)c23)cc1 (stereo not drawn) [Example 33, 5-{4-[2-(2-Methoxyethyl)aminomethylphenoxy]phenyl}-7-(3-tetrahydrofuryl)-7H-pyrrolo[2,3-d]-pyrimidin-4-ylamine]	66 to 68 °C
Nc1ncnc2c1c(-c1ccc(Oc3ccccc3)cc1)c(Br)n2C1CCOC1 (stereo not drawn) [Example 40, 4-Amino-6-bromo-5-(4-phenoxyphenyl)-7-(3-tetrahydrofuryl)-7H-pyrrolo[2,3-d]pyrimidine]	205 to 206 °C
Nc1ncnc2c1c(-c1ccc(Oc3ccccc3)cc1)cn2CC(=O)NCCN1CCNCC1 [Example 152, N-[2-(Piperazin-1-yl)ethyl]-2-[4-amino-5-[4-phenoxyphenyl)-7H-pyrrolo[2,3-d]-pyrimidin-7-yl]acetamide]	138 to 140 °C
N#Cc1cc(F)ccc1Oc1ccc(-c2cn(C3CCOCC3)c3ncnc(N)c23)cc1 [Example 53, 2-[4-(4-Amino-7-(4-tetrahydropyranyl)-7H-pyrrolo[2,3-d]pyrimidin-5-yl)phenoxy]-5-fluorobenzonitrile]	216 to 217 °C
